Experimental data reported in paper doi:10.1101/471615v1 (biorxiv, 2018).

Key:
ABL1-Phos. = ABL1-Phos. (Homo sapiens, UniProt P00519); experiment: biochemical
nemo-like kinase, NLK = target: T1, nemo-like kinase, NLK (Homo sapiens, UniProt Q9UBE8); experiment: biochemical
T1 sequence (Q9UBE8 1-527): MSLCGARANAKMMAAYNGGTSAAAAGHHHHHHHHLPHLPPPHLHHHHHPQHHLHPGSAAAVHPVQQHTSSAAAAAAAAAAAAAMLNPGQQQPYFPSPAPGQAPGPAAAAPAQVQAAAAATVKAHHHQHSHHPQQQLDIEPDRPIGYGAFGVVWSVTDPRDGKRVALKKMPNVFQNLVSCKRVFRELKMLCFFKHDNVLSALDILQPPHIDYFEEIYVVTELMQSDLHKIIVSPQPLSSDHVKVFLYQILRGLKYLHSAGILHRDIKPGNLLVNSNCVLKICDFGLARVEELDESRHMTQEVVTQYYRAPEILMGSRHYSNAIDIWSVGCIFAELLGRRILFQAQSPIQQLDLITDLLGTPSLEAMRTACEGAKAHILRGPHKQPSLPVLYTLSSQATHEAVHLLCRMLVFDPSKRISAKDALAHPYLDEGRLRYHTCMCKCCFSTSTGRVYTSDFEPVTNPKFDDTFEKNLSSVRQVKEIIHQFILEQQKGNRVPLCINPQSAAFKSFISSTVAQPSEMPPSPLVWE

Chain of ABL1-Phos. (P00519 whole entry): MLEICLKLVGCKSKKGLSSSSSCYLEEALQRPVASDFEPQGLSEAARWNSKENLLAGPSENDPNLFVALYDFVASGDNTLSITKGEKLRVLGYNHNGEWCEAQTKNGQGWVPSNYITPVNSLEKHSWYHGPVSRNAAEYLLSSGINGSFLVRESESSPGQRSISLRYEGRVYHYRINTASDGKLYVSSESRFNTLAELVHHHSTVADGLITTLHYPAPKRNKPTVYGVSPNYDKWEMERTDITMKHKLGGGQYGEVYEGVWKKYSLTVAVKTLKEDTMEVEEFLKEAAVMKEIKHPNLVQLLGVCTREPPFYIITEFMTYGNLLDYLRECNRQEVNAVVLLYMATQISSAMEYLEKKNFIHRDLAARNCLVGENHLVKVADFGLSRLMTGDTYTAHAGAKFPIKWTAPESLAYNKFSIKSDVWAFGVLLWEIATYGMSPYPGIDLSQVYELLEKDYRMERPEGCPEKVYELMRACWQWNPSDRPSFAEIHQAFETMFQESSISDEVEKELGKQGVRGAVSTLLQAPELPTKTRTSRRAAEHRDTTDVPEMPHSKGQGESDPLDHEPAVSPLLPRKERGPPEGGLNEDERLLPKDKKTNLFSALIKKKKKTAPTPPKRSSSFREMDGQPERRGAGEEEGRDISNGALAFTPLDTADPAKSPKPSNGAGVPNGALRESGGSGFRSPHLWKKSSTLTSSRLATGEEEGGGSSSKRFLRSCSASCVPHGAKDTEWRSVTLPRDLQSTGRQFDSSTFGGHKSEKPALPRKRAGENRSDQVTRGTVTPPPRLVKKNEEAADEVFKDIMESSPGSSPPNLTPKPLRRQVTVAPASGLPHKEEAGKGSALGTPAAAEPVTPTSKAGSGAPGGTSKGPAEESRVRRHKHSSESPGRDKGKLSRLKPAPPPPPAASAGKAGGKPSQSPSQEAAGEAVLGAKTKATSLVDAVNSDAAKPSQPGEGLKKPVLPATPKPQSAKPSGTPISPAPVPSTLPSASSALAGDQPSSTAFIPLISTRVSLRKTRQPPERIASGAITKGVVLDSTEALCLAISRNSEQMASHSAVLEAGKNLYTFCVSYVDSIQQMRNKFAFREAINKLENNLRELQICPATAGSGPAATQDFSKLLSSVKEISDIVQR

In the case of COc1cc(N(C)c2ccnc3ccc(C(F)(F)F)cc23)cc(OC)c1OC [compound 21, negative control (21)], the Kd (ABL1-Phos.) is reported as > 10 µM and the Kd (nemo-like kinase, NLK) is reported as > 10 µM.
